Source: PMC9090415, “Discovery of small molecule inhibitors of Plasmodium falciparum apicoplast DNA polymerase” (Journal of Enzyme Inhibition and Medicinal Chemistry, 2022)

Target: T1, bacteriophage T4 DNA polymerase (Enterobacteria phage T4, UniProt P04415)
T1 construct: made in house
T1 sequence (P04415 1-898): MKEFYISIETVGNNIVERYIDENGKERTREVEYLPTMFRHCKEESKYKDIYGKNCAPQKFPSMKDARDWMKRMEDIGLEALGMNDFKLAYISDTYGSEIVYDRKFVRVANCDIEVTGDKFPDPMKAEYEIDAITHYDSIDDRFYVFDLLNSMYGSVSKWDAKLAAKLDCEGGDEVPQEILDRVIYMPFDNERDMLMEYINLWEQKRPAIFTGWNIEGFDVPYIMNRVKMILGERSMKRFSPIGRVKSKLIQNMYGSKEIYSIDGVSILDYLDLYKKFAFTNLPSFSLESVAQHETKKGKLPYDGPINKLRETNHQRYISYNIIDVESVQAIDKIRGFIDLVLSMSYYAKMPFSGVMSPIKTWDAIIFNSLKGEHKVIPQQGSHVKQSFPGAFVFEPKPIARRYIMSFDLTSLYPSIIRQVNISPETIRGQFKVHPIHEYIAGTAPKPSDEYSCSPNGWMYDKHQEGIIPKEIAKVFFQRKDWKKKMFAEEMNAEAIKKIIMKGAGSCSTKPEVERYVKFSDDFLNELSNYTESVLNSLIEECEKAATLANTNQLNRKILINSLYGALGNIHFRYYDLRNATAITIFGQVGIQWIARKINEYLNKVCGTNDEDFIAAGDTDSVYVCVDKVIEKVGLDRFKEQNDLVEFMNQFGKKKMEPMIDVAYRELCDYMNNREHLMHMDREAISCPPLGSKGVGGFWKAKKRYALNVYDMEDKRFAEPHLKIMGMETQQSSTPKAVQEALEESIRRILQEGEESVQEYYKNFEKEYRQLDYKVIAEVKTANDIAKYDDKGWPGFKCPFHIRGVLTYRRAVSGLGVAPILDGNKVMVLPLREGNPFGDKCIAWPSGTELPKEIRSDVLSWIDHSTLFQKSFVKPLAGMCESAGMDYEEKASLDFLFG
Assay: Counter-screen against bacteriophage T4 DNA polymerase
Type: biochemical
Conditions: for % inhibition T4 10' 2.5 / % inhibition T4 10' 5 / % inhibition T4 10' 10 / % inhibition T4 10' 20 / % inhibition T4 10' 40 / % inhibition T4 10' 80: read at 10'; for % inhibition T4 70' 2.5 / % inhibition T4 70' 5 / % inhibition T4 70' 10 / % inhibition T4 70' 20 / % inhibition T4 70' 40 / % inhibition T4 70' 80: read at 70'; for % inhibition T4 130' 2.5 / % inhibition T4 130' 5 / % inhibition T4 130' 10 / % inhibition T4 130' 20 / % inhibition T4 130' 40 / % inhibition T4 130' 80: read at 130'; for % inhibition T4 40' 2.5 / % inhibition T4 40' 5 / % inhibition T4 40' 10 / % inhibition T4 40' 20 / % inhibition T4 40' 40 / % inhibition T4 40' 80: read at 40'; for % inhibition T4 90' 2.5 / % inhibition T4 90' 5 / % inhibition T4 90' 10 / % inhibition T4 90' 20 / % inhibition T4 90' 40 / % inhibition T4 90' 80: read at 90'; for % inhibition T4 180' 2.5 / % inhibition T4 180' 5 / % inhibition T4 180' 10 / % inhibition T4 180' 20 / % inhibition T4 180' 40 / % inhibition T4 180' 80: read at 180'
Summary of the method: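 Purified T4 DNA polymerase, a B-family enzyme, served as the counter-screen enzyme. Compounds were tested in dose-response format and IC50 values were derived.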

Cc1nc(C)c2c(n1)N(CC1CCCCC1)C(=O)CC2 [KU0218606]
% inhibition T4 10' 2.5 (DRC-1, concentration 2.5): -4.605% | % inhibition T4 10' 5 (DRC-1, concentration 5): -3.989% | % inhibition T4 10' 10 (DRC-1, concentration 10): -2.764% | % inhibition T4 10' 20 (DRC-1, concentration 20): -3.758% | % inhibition T4 10' 40 (DRC-1, concentration 40): -2.983% | % inhibition T4 10' 80 (DRC-1, concentration 80): -2.366% | % inhibition T4 70' 2.5 (DRC-1, concentration 2.5): -6.824% | % inhibition T4 70' 5 (DRC-1, concentration 5): -8.391% | % inhibition T4 70' 10 (DRC-1, concentration 10): -4.959% | % inhibition T4 70' 20 (DRC-1, concentration 20): -8.03% | % inhibition T4 70' 40 (DRC-1, concentration 40): -3.675% | % inhibition T4 70' 80 (DRC-1, concentration 80): -5.307% | % inhibition T4 130' 2.5 (DRC-1, concentration 2.5): -8.748% | % inhibition T4 130' 5 (DRC-1, concentration 5): -10.3586% | % inhibition T4 130' 10 (DRC-1, concentration 10): -7.013% | % inhibition T4 130' 20 (DRC-1, concentration 20): -9.978% | % inhibition T4 130' 40 (DRC-1, concentration 40): -5.652% | % inhibition T4 130' 80 (DRC-1, concentration 80): -8.474% | % inhibition T4 10' 2.5 (DRC-2, concentration 2.5): 4% | % inhibition T4 10' 5 (DRC-2, concentration 5): 4.39% | % inhibition T4 10' 10 (DRC-2, concentration 10): 6% | % inhibition T4 10' 20 (DRC-2, concentration 20): 5.27% | % inhibition T4 10' 40 (DRC-2, concentration 40): 12% | % inhibition T4 10' 80 (DRC-2, concentration 80): 12% | % inhibition T4 40' 2.5 (DRC-2, concentration 2.5): 4% | % inhibition T4 40' 5 (DRC-2, concentration 5): 4.39% | % inhibition T4 40' 10 (DRC-2, concentration 10): 6% | % inhibition T4 40' 20 (DRC-2, concentration 20): 5.27% | % inhibition T4 40' 40 (DRC-2, concentration 40): 12% | % inhibition T4 40' 80 (DRC-2, concentration 80): 12% | % inhibition T4 90' 2.5 (DRC-2, concentration 2.5): 4% | % inhibition T4 90' 5 (DRC-2, concentration 5): 5% | % inhibition T4 90' 10 (DRC-2, concentration 10): 7% | % inhibition T4 90' 20 (DRC-2, concentration 20): 7% | % inhibition T4 90' 40 (DRC-2, concentration 40): 11% | % inhibition T4 90' 80 (DRC-2, concentration 80): 11% | % inhibition T4 180' 2.5 (DRC-2, concentration 2.5): -0.169% | % inhibition T4 180' 5 (DRC-2, concentration 5): 0.674% | % inhibition T4 180' 10 (DRC-2, concentration 10): 3% | % inhibition T4 180' 20 (DRC-2, concentration 20): 2% | % inhibition T4 180' 40 (DRC-2, concentration 40): 8% | % inhibition T4 180' 80 (DRC-2, concentration 80): 8%

COc1ccc(C2CC(c3ccc(Cl)cc3Cl)Nc3nc(N)nn32)cc1OC (centres unmarked) [Molecule 43, COc1cc(ccc1OC)C1CC(Nc2n1nc(n2)N)c1ccc(cc1Cl)Cl]
% inhibition T4 10' 2.5 (DRC-1, concentration 2.5): 8.55% | % inhibition T4 10' 5 (DRC-1, concentration 5): 0.398% | % inhibition T4 10' 10 (DRC-1, concentration 10): 3.64% | % inhibition T4 10' 20 (DRC-1, concentration 20): 1.67% | % inhibition T4 10' 40 (DRC-1, concentration 40): 9% | % inhibition T4 10' 80 (DRC-1, concentration 80): 12% | % inhibition T4 70' 2.5 (DRC-1, concentration 2.5): 8% | % inhibition T4 70' 5 (DRC-1, concentration 5): 0.633% | % inhibition T4 70' 10 (DRC-1, concentration 10): 1.77% | % inhibition T4 70' 20 (DRC-1, concentration 20): 0.0404% | % inhibition T4 70' 40 (DRC-1, concentration 40): 8% | % inhibition T4 70' 80 (DRC-1, concentration 80): 9% | % inhibition T4 130' 2.5 (DRC-1, concentration 2.5): 7% | % inhibition T4 130' 5 (DRC-1, concentration 5): -0.436% | % inhibition T4 130' 10 (DRC-1, concentration 10): 0.362% | % inhibition T4 130' 20 (DRC-1, concentration 20): -1.3% | % inhibition T4 130' 40 (DRC-1, concentration 40): 6% | % inhibition T4 130' 80 (DRC-1, concentration 80): 8.47% | % inhibition T4 10' 2.5 (DRC-2, concentration 2.5): 3.49% | % inhibition T4 10' 5 (DRC-2, concentration 5): -2.24% | % inhibition T4 10' 10 (DRC-2, concentration 10): -1.16% | % inhibition T4 10' 20 (DRC-2, concentration 20): -2.26% | % inhibition T4 10' 40 (DRC-2, concentration 40): 0.721% | % inhibition T4 10' 80 (DRC-2, concentration 80): 0.788% | % inhibition T4 40' 2.5 (DRC-2, concentration 2.5): 2.64% | % inhibition T4 40' 5 (DRC-2, concentration 5): -2.79% | % inhibition T4 40' 10 (DRC-2, concentration 10): -1.88% | % inhibition T4 40' 20 (DRC-2, concentration 20): -2.36% | % inhibition T4 40' 40 (DRC-2, concentration 40): 1% | % inhibition T4 40' 80 (DRC-2, concentration 80): 0.512% | % inhibition T4 90' 2.5 (DRC-2, concentration 2.5): 2% | % inhibition T4 90' 5 (DRC-2, concentration 5): -3% | % inhibition T4 90' 10 (DRC-2, concentration 10): -0.792% | % inhibition T4 90' 20 (DRC-2, concentration 20): -3% | % inhibition T4 90' 40 (DRC-2, concentration 40): -0.348% | % inhibition T4 90' 80 (DRC-2, concentration 80): -1% | % inhibition T4 180' 2.5 (DRC-2, concentration 2.5): -2.47% | % inhibition T4 180' 5 (DRC-2, concentration 5): -8% | % inhibition T4 180' 10 (DRC-2, concentration 10): -5% | % inhibition T4 180' 20 (DRC-2, concentration 20): -7% | % inhibition T4 180' 40 (DRC-2, concentration 40): -4% | % inhibition T4 180' 80 (DRC-2, concentration 80): -2.58%

O=c1[nH]c2ccc([N+](=O)[O-])cc2c(-c2ccccc2)c1Sc1nc2ccccc2o1 [KU0067471]
% inhibition T4 10' (DRC-2, concentration 10): 35% | % inhibition T4 10' (DRC-2, concentration 20): 35% | % inhibition T4 40' (DRC-2, concentration 10): 36% | % inhibition T4 40' (DRC-2, concentration 40): 48% | % inhibition T4 40' (DRC-2, concentration 80): 47% | % inhibition T4 90' (DRC-2, concentration 2.5): 11% | % inhibition T4 90' (DRC-2, concentration 20): 36% | % inhibition T4 90' (DRC-2, concentration 40): 47% | % inhibition T4 90' (DRC-2, concentration 80): 48% | % inhibition T4 180' (DRC-2, concentration 5): 11% | % inhibition T4 180' (DRC-2, concentration 80): 47%

O=C(O)CCS(=O)(=O)c1ccc(-c2ccc(S(=O)(=O)CCC(=O)O)cc2)cc1 [Molecule 32, OC(=O)CCS(=O)(=O)c1ccc(cc1)c1ccc(cc1)S(=O)(=O)CCC(=O)O]
% inhibition T4 10' (DRC-2, concentration 2.5): -14% | % inhibition T4 40' (DRC-2, concentration 20): -22% | % inhibition T4 40' (DRC-2, concentration 40): -14% | % inhibition T4 90' (DRC-2, concentration 5): -25% | % inhibition T4 90' (DRC-2, concentration 20): -25% | % inhibition T4 90' (DRC-2, concentration 40): -17% | % inhibition T4 180' (DRC-2, concentration 2.5): -25% | % inhibition T4 180' (DRC-2, concentration 40): -22% | % inhibition T4 180' (DRC-2, concentration 80): -17%
